# Patent US20230140290A1, “SALICYLAMIDE DERIVATIVES AND RELATED METHODS OF MAKING” (THE BOARD OF REGENTS OF THE UNIVERSITY OF TEXAS SY, priority 2020, published 2023)
# How the values were obtained:
# wild-type HAdV5 = test: Nuclear-associated HAdV genomes (real-time PCR); format: cell-based, HAdV-5
# Protocol: (§1) Nuclear-Associated HAdV Genomes. The nuclear delivery of HAdV genomes was assessed by real-time PCR following nuclear isolation from infected cells. […] Forty-five minutes after infection, A549 cells were trypsinized and collected and then washed twice with PBS. Then, cytoplasmic and nuclear fractions were separated using a hypotonic buffer solution and NP-40 detergent. The cell pellet was resuspended in 500 μL of 1×hypotonic buffer (20 mM Tris-HCl pH 7.4, 10 mM NaCl, 3 mM MgCl2) and incubated for 15 min at 4° C. Then, 25 μL of NP-40 was added and the samples were vortexed. The homogenates were centrifuged for 10 min at 835 g at 4° C. Following the removal of the cytoplasmic fraction (supernatant), HAdV DNA was isolated from the nuclear fraction (pellet) and from the cytoplasmic fraction using the QIAamp DNA Mini Kit (QIAGEN, Valencia, Calif.).
# as §1, with “E.Z.N.A.® Tissue” for “QIAamp”, “DNA” for “DNA Mini”, “(Omega Bio-tek, Norcross, Ga.).” for “(QIAGEN, Valencia, Calif.).”
# HAdV5-GFP [1] = test: Entry assay (HAdV5-mediated GFP expression); format: cell-based, HAdV-5; settings: for inhibition at 50 µM: A549, 48 h, read-out: (%) Inhibition Entry Assay (50 μM); for IC50: A549, read-out: IC50 Entry Assay (μM), HAdV5-GFP, high MOI, A549 cell line
# Protocol: Entry Assay. The anti-HAdV activity was measured in an entry assay using human A549 epithelial cells (3×10^5 cells/well in coming black wall, clear bottom 96-well plates) infected with HAdV5-GFP (2000 vp/cell) in the presence 50 μM of the candidates and in a dose-response assay. A standard infection curve was generated in parallel by infecting cells in the absence of compounds using serial 2-fold dilutions of virus. All reactions were done in triplicate. Cells, virus, and drugs were incubated for 48 h at 37° C. and 5% CO2.
# HAdV5-GFP [2] = test: Plaque assay (inhibition of HAdV plaque formation); format: cell-based, HAdV-5; settings: for inhibition at 10 µM: read-out: Plaque Assay (%) Inhibition (10 μM); for Selectivity index (SI): ratio of CC50 to IC50 in plaque assay
# Method in brief: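 Cells at 80-90% confluency infected with HAdV5-GFP at 0.06 vp/cell, rocked 2 h at 37° C, then washed with PBS. Compounds tested at 10 μM and in dose-response from 10 to 0.3 μM, included in the post-infection mixture.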
# A549 cells = test: Cytotoxicity assay (AlamarBlue); settings: read-out: CC50 (μM), cytotoxic concentration 50%; A549 cell line, 48 h
# Protocol: Cytotoxicity Assay. The cytotoxicity of the compounds was analyzed by commercial kit AlamarBlue® (Invitrogen, Ref. DAL1025). A549 cells at a density of 5×10^3 cells per well in 96-well plates were seeded. […] Cells were then incubated at 37° C. for 48 h following the kit protocol. The cytotoxic concentration 50 (CC50) value was obtained using the statistical package GraphPad Prism. This assay was performed in duplicate.
# [3] = FIG. 3, 45 min post infection, concentrations by CC50 (2-50 μM)
# [4] = read-out: Plaque Assay IC50 (μM), HAdV5-GFP, low MOI, 293β5 cell line
SMILES,amount of nuclear-associated HAdV genomes versus DMSO (wild-type HAdV5; [3]),inhibition at 50 µM (HAdV5-GFP [1]) [%],inhibition at 10 µM (HAdV5-GFP [2]) [%],IC50 (HAdV5-GFP [2]; [4]) [µM],CC50 (A549 cells) [µM],IC50 (HAdV5-GFP [1]) [µM],Selectivity index (SI) (HAdV5-GFP [2]),"amount of nuclear-associated HAdV genomes versus DMSO (wild-type HAdV5; FIG. 5A, 45 min post-infection, 10-fold plaque IC50)",Plaque Assay (%) Inhibition (10 μM) (HAdV5-GFP [2]),"IC50 (HAdV5-GFP [2]; read-out: Plaque Assay IC50, HAdV5-GFP, low MOI, 293β5 cell line) [µM]"
"O=C(Nc1ccc([N+](=O)[O-])cc1)c1cc(Cl)ccc1O [Compound 13, 5-Chloro-2-hydroxy-N-(4-nitrophenyl)benzamide]",significant (p≤0.0001) reductions,100,98 ± 2.8,0.11,–,–,–,–,–,–
"CC[C@@H](C)[C@H](NC(=O)c1cc(Cl)ccc1O)C(=O)Nc1ccc([N+](=O)[O-])cc1Cl [Compound 62, 5-Chloro-N-((2S,3R)-1-((2-chloro-4-nitrophenyl)amino)-3-methyl-1-oxopentan-2-yl)-2-hydroxybenzamide]",significant (p≤0.0001) reductions,98.2 ± 0.5,99 ± 0.3,0.16,20.2,2.5 ± 0.22,127.6,–,–,–
"CC(C)[C@H](NC(=O)c1cc(Cl)ccc1NS(C)(=O)=O)C(=O)Nc1ccc([N+](=O)[O-])cc1Cl [Compound 70, (S)-5-Chloro-N-(1-((2-chloro-4-nitrophenyl)amino)-3-methyl-1-oxobutan-2-yl)-2-(methylsulfonamido)benzamide]",significant (p≤0.0001) reductions,99.1 ± 1.2,99.1 ± 1.2,0.68,174,1.38 ± 0.1,256.0,–,–,–
"CC(C)(Cc1ccccc1)ON(c1ccc(NC(=O)c2cc(Cl)ccc2O)c(Cl)c1)C(C)(C)Cc1ccccc1 [Compound 115, 5-Chloro-N-(2-chloro-4-((2-methyl-1-phenylpropan-2-yl)((2-methyl-1-phenylpropan-2-yl)oxy)amino)phenyl)-2-hydroxybenzamide]",–,59.1,100,1.27,165,34.1,129.7,no significant differences,–,–
"O=C(Nc1ccc(NCCCO)cc1Cl)c1cc(Cl)ccc1O [Compound 120, 5-Chloro-N-(2-chloro-4-((3-hydroxypropyl)amino)phenyl)-2-hydroxybenzamide]",–,–,36 ± 4.2,–,106,–,–,–,inactive,–
"O=C(Nc1ccc(N(CCCO)CCCO)cc1Cl)c1cc(Cl)ccc1O [Compound 121, N-(4-(Bis(3-hydroxypropyl)amino)-2-chlorophenyl)-5-chloro-2-hydroxybenzamide]",–,–,35 ± 7.1,–,114 ± 9.2,–,–,–,inactive,–
"CC(C)(C)OC(=O)NCCNc1ccc(NC(=O)c2cc(Cl)ccc2O)c(Cl)c1 [Compound 122, tert-Butyl (2-((3-chloro-4-(5-chloro-2-hydroxybenzamido)phenyl)amino)ethyl)carbamate]",–,–,100,2.78,25 ± 5.7,–,9.0,–,–,–
"CC(C)(C)OC(=O)N1CCC(Nc2ccc(NC(=O)c3cc(Cl)ccc3O)c(Cl)c2)CC1 [Compound 124, tert-Butyl 4-((3-chloro-4-(5-chloro-2-hydroxybenzamido)phenyl)amino)piperidine-1-carboxylate]",–,–,88.9 ± 9,1.21,100,–,82.6,–,–,–
"Cc1ccc(O)c(C(=O)Nc2ccc(NC3CCCC3)cc2Cl)c1 [Compound 136, N-(2-Chloro-4-(cyclopentylamino)phenyl)-2-hydroxy-5-methylbenzamide]",–,–,99.6 ± 0.5,2.72,30.9 ± 1.6,–,11.4,–,–,–
"CS(=O)(=O)Nc1ccc(Cl)cc1C(=O)Nc1ccc(NC2CCCC2)cc1Cl [Compound 140, 5-Chloro-N-(2-chloro-4-(cyclopentylamino)phenyl)-2-(methylsulfonamido)benzamide]",–,–,99.8 ± 0.4,1.72,35.4 ± 2.7,–,20.6,–,–,–
"O=C(Nc1ccc(NC2CCCC2)cc1)c1cc(Cl)ccc1O [Compound 141, 5-Chloro-N-(4-(cyclopentylamino)phenyl)-2-hydroxybenzamide]",–,–,99.8 ± 0.3,2.6,10 ± 2.2,–,3.9,–,–,–
"O=C(Nc1ccc(NC2CCCC2)cc1F)c1cc(Cl)ccc1O [Compound 142, 5-Chloro-N-(4-(cyclopentylamino)-2-fluorophenyl)-2-hydroxybenzamide]",–,–,98.7 ± 0.4,1.04,51 ± 13.3,–,49.1,–,–,–
"O=C(Nc1ccc(NC2CCCC2)c(Cl)c1)c1cc(Cl)ccc1O [Compound 143, 5-Chloro-N-(3-chloro-4-(cyclopentylamino)phenyl)-2-hydroxybenzamide]",–,–,100,0.84,16.9 ± 0.1,–,20.1,–,–,1.34
"O=C(Nc1cc(NC2CCCC2)ccc1F)c1cc(Cl)ccc1O [Compound 144, 5-Chloro-N-(5-(cyclopentylamino)-2-fluorophenyl)-2-hydroxybenzamide]",–,–,99.8 ± 0.4,1.34 ± 0.05,44 ± 12.8,–,32.8,–,–,–
"O=C(NCc1ccc(NC2CCCC2)cc1Cl)c1cc(Cl)ccc1O [Compound 145, 5-Chloro-N-(2-chloro-4-(cyclopentylamino)benzyl)-2-hydroxybenzamide]",–,–,98.5 ± 0.7,7.97 ± 0.43,28.3 ± 2.5,–,3.6,–,–,–
"CC(C)[C@H](NC(=O)c1cc(Cl)ccc1O)C(=O)Nc1ccc(NC2CCCC2)cc1Cl [Compound 147, (S)-5-chloro-N-(1-((2-chloro-4-(cyclopentylamino)phenyl)amino)-3-methyl-1-oxobutan-2-yl)-2-hydroxybenzamide]",–,–,99.5 ± 0.7,3.83 ± 0.42,111 ± 8.4,–,28.9,–,–,–
